For `Cc1cc2oc(C(N)=O)cc(=O)c2c(C)c1Cl`, the melting point was > 300 °C. For `Cc1cn(C2CC(O)C(CO[Si](C)(C)C(C)(C)C)O2)c(=O)[nH]c1=O` (stereo not given), the melting point was 193 to 194 °C. With `Brc1ccc2c(c1)CC(N1CCNCC1)c1ccccc1S2` (stereo not given) the melting point was 112 to 115 °C. Work on `NC(=O)c1cnn2c(=O)n(CCCl)nnc12` yielded a melting point of 193 to 194 °C. `N#Cc1cc(-c2nc3cncnc3s2)ccc1Oc1ccccc1F` gave a melting point of 195 to 196 °C. Work on `Cc1cc(Cl)ccc1N=CN(C)SN(c1ccccc1)c1ccccc1` yielded a melting point of 78 to 79 °C. In the case of `O=C(O)c1cc(C(F)(F)F)cc(-c2ccc(Cl)c(C(=O)NCC34CC5CC(CC(C5)C3)C4)c2)n1`, the melting point is reported as 220 to 225 °C. Work on `Cc1cc(Br)cnc1CCCCN` yielded a melting point of 35 to 37 °C. Work on `COC(=O)C(=C(/C)c1cc(OC)cc(OC)c1)/C(=C\c1ccccc1)C(=O)NN1CCN(C)CC1` yielded a melting point of 117 to 121 °C. `CCSc1cccc(OC(F)(F)F)c1S(=O)(=O)NC(=O)c1noc(C)n1` gave a melting point of 111 °C. `CN(C)c1ccc(S(=O)(=O)n2c(CCCC(=O)O)cc3nc(Cl)ccc32)cc1` showed a melting point of 76 °C. `CNc1nc(-c2cccc(NC(=O)c3ccccc3)c2)c2cc(O)c(OC)cc2n1` showed a melting point of 145 to 147 °C. `N#C[C@@H]1CCC[C@H]2OC[C@@H](c3ccccc3)N12` gave a melting point of 81 °C. With `OC(CNC12N=CN=CC1=NC=N2)CN1CCN(C(c2ccc(F)cc2)c2ccc(F)cc2)CC1` (stereo not given) the melting point was 140 to 170 °C. With `CCOc1cnc(C)c(S(=O)(=O)c2ccc(OCc3ccccc3)cc2)c1` the melting point was 133 to 134 °C. Work on `Clc1nsnc1-c1cccnc1` yielded a melting point of 48 to 49 °C. `CC(=O)c1nnn(C[C@@H]2C[C@@H](S)CN2S(=O)(=O)c2ccc3ccccc3c2)c1C` gave a melting point of 145 °C. With `CCC1=Nc2ccc(S(C)(=O)=O)cc2C(=O)C1` the melting point was 283 °C. With `CS(=O)(=O)c1nccc(-n2ncc3ccccc32)n1` the melting point was 177 to 181 °C. Compound `CCCCCCCNC(=O)Oc1ccc2c(c1)c(C)cn2NCCCc1ccncc1F` has a melting point of 90 to 93 °C. Compound `O=C(CC1CCCCC1)Nc1n[nH]c(-c2ccc(F)cc2)c1-c1ccncc1` has a melting point of 296 to 300 °C. `O=C(Cn1c(-c2ccc(Cl)cc2)nc2cccnc21)N1CCOCC1` showed a melting point of 213 to 216 °C. For `O=C(Nc1cccc(Br)c1)Oc1ccc2c(c1)CCCN2Cc1ccccc1`, the melting point was 117 °C. Work on `Cn1c(C(F)(F)F)cc(=O)n(-c2cc(OCc3ccccc3)c(Cl)cc2F)c1=O` yielded a melting point of 129 to 131 °C. In the case of `CNC(=O)[C@@H]1C=CCN1S(=O)(=O)c1ccc(Cl)c(COc2cccc3c(-n4ccnc4)cc(C)nc23)c1Cl`, the melting point is reported as 132 °C. Compound `CN(C)C(=C(C#N)C#N)N(C)N=Cc1ccccc1` has a melting point of 127 to 128 °C. For `CCc1c(C)c(NC(=O)CC(C)(C)C)c(C)c2c1S(=O)CC2c1ccc(C(C)C)cc1` (stereo not given), the melting point was 195 to 196 °C. `CCCCNc1c(C(=O)OCC)c(C)nc2c1ncn2C` gave a melting point of 62 to 63 °C. For `CCN(c1ccc(Cl)cc1C(N)=S)S(=O)(=O)c1ccc(C)cc1`, the melting point was 180 to 182 °C. In the case of `CCC(C(=O)c1ccc(Cl)cc1)n1ncn(-c2ccc(N3CCN(c4ccc(O)cc4)CC3)cn2)c1=O` (stereo not given), the melting point is reported as 186 °C. `COC(=O)CCc1ccc(NC(=O)C(COC2CCCCO2)NS(=O)(=O)c2ccc(Cl)cc2)cc1` (racemic) showed a melting point of 102 to 107 °C. For `Cc1ccc(C(=O)NC(NC(=NC#N)Nc2ccccc2)C(Cl)(Cl)Cl)cc1` (stereo not given), the melting point was 197 to 199 °C. `ClCOc1nc(Cl)c(Cl)cc1Cl` showed a melting point of 94 to 96 °C. In the case of `CC(C)(O/N=C(\C(=O)N[C@@H]1C(=O)N[C@@H]1COC(=O)NC(=O)CCl)c1csc(NC(=O)CCl)n1)C(=O)OCc1ccc([N+](=O)[O-])cc1` (relative stereo), the melting point is reported as 206 to 209 °C. `COc1nc(NC(=O)NS(=O)(=O)c2ccccc2OC(F)F)nc(C2CC2)n1` showed a melting point of 121 to 124 °C. Work on `Brc1cn2c(Br)cnc2c(Br)n1` yielded a melting point of 161 °C. `CC1(C)CC(=O)CC(C)(C)N1C#N` showed a melting point of 75 to 76 °C. In the case of `O=C(O)c1ccc(CCCCCc2ccccc2)cc1`, the melting point is reported as 80 to 80.5 °C. `CCCCOc1c(C(=O)O)n(CC(C)(C)C)c(=O)c2cc(F)ccc12` gave a melting point of 184 to 185 °C. Compound `CCOC(=O)c1ncc2[nH]c3ccc(C(=S)N4CCCCC4)cc3c2c1C` has a melting point of 225 to 230 °C. With `COc1cc(-c2nc(C)nn2C)cc2oc(=O)c(C)c(C)c12` the melting point was 180 °C. Work on `N#CC=C1CCN(c2ccc(N3C[C@H](CNC(=O)C(F)F)OC3=O)cc2F)CC1` yielded a melting point of 162 to 164 °C. `CC(CSC(=O)c1ccccc1)C(=O)N1c2ccccc2CC1C(=O)O` (stereo not given) showed a melting point of 116 to 117 °C. Compound `COc1ccc2c(c1)C(=NO)C(=O)N2c1ccc(F)cc1` has a melting point of 217 to 219 °C. With `NC(=NO)c1ncn2c1N1CCN=C1c1ccccc1-2` the melting point was 209 to 212 °C. `CCCOc1ccccc1-c1nc2cc3ncn(CC4CCCCC4)c3cc2c(=O)[nH]1` gave a melting point of 223 to 226 °C. In the case of `Cc1ccc2c(n1)Oc1ccc(C(C)C(=O)OCC(=O)N(C)C)cc1C2` (stereo not given), the melting point is reported as 150 to 151 °C. For `CCCC(CO)(CO)CO`, the melting point was 100 to 101 °C. `CN(C(=O)c1ccc(Nc2nccc(Nc3ccc(C(F)(F)F)cc3)n2)cc1)C1CCOCC1` showed a melting point of 254 to 256 °C. With `CN(C)CCCCNC(=O)Cn1ncc(-c2ccccc2)c1-c1ccccc1` the melting point was 77 to 79 °C.

Source: a melting point compilation (Tetko et al.; mined from patent text by program, amines drawn as free bases though some values may be those of a salt)
